The results in this text go back to US8497075B2, “Methods of identifying a modulator that inhibits the binding between Epstein-Barr virus induced receptor 2 and cholesterol derived ligands” (Novartis AG, priority 2008, dated 2013).

pEC50: −log10 of the molar value. Where two headings read alike, the source gives them in different places.

Holding throughout (assay type): cell-based
The target of experiment [1] is hEBI2 (Homo sapiens, UniProt P32249). Put plainly: cAMP assay, hEBI2 CHO-AeqGα16 cells. Also noted: expressed in transfected cells; host or cells: CHO-K1 expressing apoaequorin (CHO-Aeq) with Gqi5; line E2. The method, then: The same stable EBI2 cell line used in the aequorin assay was used in cAMP assay. 10,000 cells (25 μA) were seeded per well into white solid 384-well plate and incubated in 37° C. incubator overnight. 500 nl of compound was then transferred into each assay well, followed by 5 μl of forskolin addition for a final concentration of 30 μM. Cells were returned to a 37° C. incubator for 30 min. Finally 15 μl each of HiRange D2-cAMP and anti-cAMP cryptate were dispensed per well. After >1 hr room temperature incubation, data acquisition was done in the time-resolved FRET (fluorescence-resonance energy transfer) mode on Envision™ or ViewLux™ (Perkin Elmer). The ratio between the acceptor fluorescence signal (A665 nm) and donor fluorescence signal (A620 nm)×104, representing the FRET between the conjugated cAMP and the anti-cAMP antibody, was calculated and plotted on Y-axis. The higher the signal, the lower endogenous cAMP concentration is in the sample.
Sequence of hEBI2 (P32249 whole entry): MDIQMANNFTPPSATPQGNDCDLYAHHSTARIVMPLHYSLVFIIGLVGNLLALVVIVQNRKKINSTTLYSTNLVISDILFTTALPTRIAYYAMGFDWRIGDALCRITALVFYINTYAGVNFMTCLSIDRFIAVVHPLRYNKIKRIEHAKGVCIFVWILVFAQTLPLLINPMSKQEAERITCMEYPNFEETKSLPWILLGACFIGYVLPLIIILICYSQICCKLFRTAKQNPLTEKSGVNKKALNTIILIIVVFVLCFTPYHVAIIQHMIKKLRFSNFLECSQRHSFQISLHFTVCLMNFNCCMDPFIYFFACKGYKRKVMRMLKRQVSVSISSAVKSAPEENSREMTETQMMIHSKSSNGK
For orientation: cAMP levels reflect the balance of adenylyl cyclase and phosphodiesterase activity.

The target of experiment [2] is T1, LXRa (NR1H3) (Homo sapiens, UniProt Q13133).
T1 sequence (Q13133 1-447): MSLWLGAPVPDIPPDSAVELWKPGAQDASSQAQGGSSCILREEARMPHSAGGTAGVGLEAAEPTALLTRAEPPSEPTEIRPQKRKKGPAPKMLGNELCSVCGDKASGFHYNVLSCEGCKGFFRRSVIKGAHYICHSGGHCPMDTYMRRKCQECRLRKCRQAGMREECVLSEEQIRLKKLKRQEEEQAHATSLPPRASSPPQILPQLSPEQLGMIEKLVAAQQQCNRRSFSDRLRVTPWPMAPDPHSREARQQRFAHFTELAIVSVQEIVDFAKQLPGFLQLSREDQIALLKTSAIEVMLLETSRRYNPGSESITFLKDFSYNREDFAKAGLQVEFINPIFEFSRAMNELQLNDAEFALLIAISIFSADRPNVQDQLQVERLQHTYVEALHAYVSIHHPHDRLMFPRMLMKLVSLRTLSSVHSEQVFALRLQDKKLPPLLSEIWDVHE
Nature of the experiment: nuclear hormone receptor reporter gene assay. The following applies: concentrations up to 10 μM. From the text: (§1) So far oxysterols have been noted to have various physiological activities namely regulate the expression of genes that participate in both sterol and fat metabolism, serve as substrates for the synthesis of bile acids, and are intermediates in the transfer of sterols from the periphery to the liver (Russell, D. W. (2000). Oxysterol biosynthetic enzymes. Biochim. Biophys. Acta 1529, 126-135). […] This included binding assays for 26 different GPCRs, functional assays of 9 different GPCRs, 40 kinase assays, as well as selected ion channels, proteases, transporter and enzyme assays.
On the technique in general: Reporter assays use an easily measured gene product as a stand-in for the process of interest.

Experiment [3] deals with T2, GR (NR3C1) (Homo sapiens, UniProt P04150).
T2 sequence (P04150 1-777): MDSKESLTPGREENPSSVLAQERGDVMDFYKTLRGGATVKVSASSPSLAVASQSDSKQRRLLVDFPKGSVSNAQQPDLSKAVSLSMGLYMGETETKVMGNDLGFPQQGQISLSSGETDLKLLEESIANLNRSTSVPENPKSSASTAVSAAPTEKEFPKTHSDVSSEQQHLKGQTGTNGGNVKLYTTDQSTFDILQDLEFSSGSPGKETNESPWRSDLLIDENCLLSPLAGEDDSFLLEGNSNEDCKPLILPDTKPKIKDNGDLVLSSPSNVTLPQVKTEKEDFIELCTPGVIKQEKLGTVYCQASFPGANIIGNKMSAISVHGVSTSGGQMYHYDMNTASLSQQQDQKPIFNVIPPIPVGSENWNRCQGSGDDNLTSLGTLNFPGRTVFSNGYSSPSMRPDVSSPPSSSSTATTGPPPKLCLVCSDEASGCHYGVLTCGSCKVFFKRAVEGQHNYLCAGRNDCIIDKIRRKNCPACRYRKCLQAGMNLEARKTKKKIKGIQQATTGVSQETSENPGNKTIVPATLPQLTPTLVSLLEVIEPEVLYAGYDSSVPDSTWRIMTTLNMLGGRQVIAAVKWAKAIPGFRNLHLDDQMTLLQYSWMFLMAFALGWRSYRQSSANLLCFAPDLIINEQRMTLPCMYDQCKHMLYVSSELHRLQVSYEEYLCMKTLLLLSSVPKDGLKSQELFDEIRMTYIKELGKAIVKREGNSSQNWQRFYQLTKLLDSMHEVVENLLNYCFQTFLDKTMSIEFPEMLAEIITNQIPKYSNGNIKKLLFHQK
Put plainly: nuclear hormone receptor reporter gene assay. The following applies: concentrations up to 10 μM.
Description: as §1

Experiment [4] deals with T3, FXRa (NR1H4) (Homo sapiens, UniProt Q96RI1).
T3 sequence (Q96RI1 1-486): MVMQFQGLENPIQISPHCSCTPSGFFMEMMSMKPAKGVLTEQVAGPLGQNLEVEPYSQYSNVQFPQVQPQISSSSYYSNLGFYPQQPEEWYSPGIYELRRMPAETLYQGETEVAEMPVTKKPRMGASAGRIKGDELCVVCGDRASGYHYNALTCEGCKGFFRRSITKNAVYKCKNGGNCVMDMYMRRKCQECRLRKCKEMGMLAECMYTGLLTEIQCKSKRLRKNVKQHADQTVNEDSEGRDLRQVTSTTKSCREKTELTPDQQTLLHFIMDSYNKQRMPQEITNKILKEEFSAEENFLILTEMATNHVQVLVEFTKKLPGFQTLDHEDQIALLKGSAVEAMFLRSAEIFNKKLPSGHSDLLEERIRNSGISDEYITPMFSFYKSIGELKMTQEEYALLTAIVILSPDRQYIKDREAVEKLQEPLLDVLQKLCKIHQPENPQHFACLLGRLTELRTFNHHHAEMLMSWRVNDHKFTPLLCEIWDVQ
Nature of the experiment: nuclear hormone receptor reporter gene assay. The following applies: concentrations up to 10 μM.
Description: as §1

Experiment [5] deals with T4, RXRa (NR2B1) (Homo sapiens, UniProt P19793).
T4 sequence (P19793 1-462): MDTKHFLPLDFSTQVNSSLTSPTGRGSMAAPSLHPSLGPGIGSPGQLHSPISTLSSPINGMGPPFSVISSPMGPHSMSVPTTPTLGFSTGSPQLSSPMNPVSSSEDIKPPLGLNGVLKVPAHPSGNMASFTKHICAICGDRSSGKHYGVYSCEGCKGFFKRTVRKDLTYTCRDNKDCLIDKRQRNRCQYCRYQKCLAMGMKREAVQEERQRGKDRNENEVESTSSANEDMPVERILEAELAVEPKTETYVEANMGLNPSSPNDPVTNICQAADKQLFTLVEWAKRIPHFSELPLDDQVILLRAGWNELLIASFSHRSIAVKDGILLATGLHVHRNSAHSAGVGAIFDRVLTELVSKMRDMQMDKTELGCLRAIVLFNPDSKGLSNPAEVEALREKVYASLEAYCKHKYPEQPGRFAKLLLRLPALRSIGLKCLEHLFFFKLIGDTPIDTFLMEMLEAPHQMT
Nature of the experiment: nuclear hormone receptor reporter gene assay. The following applies: concentrations up to 10 μM.
Description: as §1

A word on the pEC50: it is the negative decadic logarithm of the EC50, by convention in mol/L. In experiment [1], `C[C@H](CCCC(C)(C)O)[C@H]1CC[C@H]2[C@@H]3[C@H](O)C=C4C[C@@H](O)CC[C@]4(C)[C@H]3CC[C@]12C` [7a,25DHC, cholest-5-ene-3b,7a,25-triol] showed a pEC50 of 7.99. Further, the “activation of LXRa” value in experiment [2] was “did not activate”. Also, the “activation of GR” value in experiment [3] is listed as “did not activate”. Moreover, the “activation of FXRa” value in experiment [4] is listed as “did not activate”. For the same molecule, in experiment [5], the “activation of RXRa” value is given as “did not activate”.
As to `CC(CO)CCC[C@@H](C)[C@H]1CC[C@H]2[C@@H]3[C@H](O)C=C4C[C@@H](O)CC[C@]4(C)[C@H]3CC[C@]12C` (stereo partly shown) [7a,27DHC, cholest-5-ene-3b,7a,27-triol], in experiment [2], the “activation of LXRa” value was “did not activate”. In addition, in experiment [3], the “activation of GR” value was “did not activate”. Moreover, the “activation of FXRa” value in experiment [4] is “did not activate”. Further, the “activation of RXRa” value in experiment [5] is “did not activate”.
Take `C[C@H](CCCC(C)(C)O)[C@H]1CC[C@H]2[C@@H]3[C@@H](O)C=C4C[C@@H](O)CC[C@]4(C)[C@H]3CC[C@]12C` [7b,25DHC, cholest-5-ene-3b,7b,25-triol]: the pEC50 in experiment [1] (forskolin 30 μM, read-out: EC50, cAMP assay) was 4.97.
